Reference: US10000566B2, “Anti-CD33 antibodies and methods for treatment of acute myeloid leukemia using the same” (IMMUNOGEN INC., priority 2002, dated 2018)
Entries after “also recorded” stand apart in the source; their conditions may differ.

Legend:
[1] = system: HL-60 cells injected intravenously; assay: HL-60 cell mouse survival model; format: in vivo, SCID mice; details: treatment starting 11 days after cell injection
Procedure: FIGS. 24A & B show anti-tumor efficacy of My9-6-DM1 compared with Gentuzumab ozogamicin and standard chemotherapy in an HL-60 survival model. HL-60 cells were intravenously injected into SCID mice. Indicated treatments were started 11 days following injection of cells. Treatments were i.v. daily ×5 except for Gentuzumab ozogamicin (Q4D×3).
(§1) Subcutaneous tumor model—HL-60 human promyelocytic leukemia cells (5×10^6 cells in 0.1 mL) were subcutaneously inoculated into the right flank of female SCID mice. Mice were treated by intravenous injection into a lateral tail vein starting when tumors reached 100 mm^3 in size (400 mm^3 in large tumor model). Tumor size and mouse body weight were measured twice per week. Survival model—HL-60 cells (5×10^6 cells in 0.1 mL) were intravenously injected into the lateral tail vein of female SCID mice. Eleven days after tumor cell injection treatment was started. Mice were checked every day for moribund, tumor mass, or death. Body weight was measured twice per week.
While the efficacy of My9-6-DM1 in the tumor xenograft model is striking, it is also of interest to look at the activity of the conjugate in a mouse survival model where HL-60 cells are injected directly into a mouse tail vein. In this model, control mice die between 30 and 50 days after cell injection. […] However, even in this model, standard chemotherapy provided no significant survival enhancement (FIG. 24B).

[2] = system: human HL-60 tumor cell xenografts; assay: Subcutaneous HL-60 tumor xenograft model in SCID mice; format: in vivo
Procedure: as §1
The efficacy of My9-6-DM1 in vivo was determined using SCID mice bearing human HL-60 tumor cell xenografts. HL-60 cells were injected subcutaneously and tumors were allowed to grow to an average size of 100 mm^3. Dosage is expressed as mg antibody in the conjugate, which corresponds to a DM1 dose of approximately 15 μg DM1 per mg of antibody. Tumor volume was measured as an indication of treatment efficacy and mouse body weight was monitored to indicate toxicity due to treatment.

[3] = molecular target: T1, CD33 on CD33-positive U-937 cells (Homo sapiens, UniProt P20138); assay: Competition binding of 125I-labeled muMy9-6 to U-937 cells
T1 construct: endogenous in cells; host or cells: U-937 human histiocytic lymphoma cell line (ATCC CRL-1953.2)
Procedure: The My9-6 antibody has further been functionally characterized and shown to bind with high affinity to CD33 on the surface of CD33-positive U-937 cells (FIG. 1). ^125I-labeled My9-6 binds to U-937 cells and it is competed off the cells by unlabeled My9-6 and the previously characterized anti-CD33 antibody My9 (BioGenex, cat. no. 267M).
To further ascertain its specificity for binding to the CD33 antigen, a competition binding experiment was performed between labeled muMy9-6 and the commercially available anti-CD33 antibody My9. The binding experiment was performed using the method described by Goldmacher et al. (1989, J. Cell. Physiol. 141, 222-234). Murine My9-6 antibody was radiolabeled with ^125I using the Iodo-gen technique (Fraker, P. J. and Speck, J. C., 1978, Biochem. Biophys. Res. Commun. 80, 849-857). A constant amount (3×10^−9 M) of ^125I-labeled muMy9-6 was mixed with increasing concentrations of non-radioactive antibody, either unlabeled muMy9-6 or unlabelled My9, and the mixtures were incubated with cells (1×10^6 cells per sample) at 4° C. for 30 min. […] The cell pellet was then removed by cutting the centrifuge tubes at the oil interface and was used to measure the cell-associated radioactivity on a gamma-counter (model RIAgamma 1274 from LKB). The cell-associated radioactivity measured was […] against the concentrations of the unlabelled, competing antibodies. […]

[4] = in vivo; cited from earlier work
large HL-60 tumors = assay: Large HL-60 tumor xenograft model in SCID mice; format: in vivo; details: for toxicity of higher drug doses: not shown; for effect on tumor growth: standard chemotherapeutic agents, tumor volume >400 mm^3
Procedure: as §1
Tumors were allowed to grow to a tumor volume of >400 mm^3 prior to the initiation of treatment. In addition, a comparison of the activity of My9-6-DM1 with standard chemotherapeutic drugs was conducted. […]

[5] = molecular target: T2, CD33 on HL-60 membranes or whole cells (Homo sapiens, UniProt P20138); assay: Direct binding assays on HL-60 membranes and HL-60 whole cells
T2 construct: endogenous in cells; host or cells: HL-60 human leukemic cell line (whole cells; plasma membranes prepared from HL-60)
Procedure: HL-60 cells were harvested from T75 flasks (NUNCLON™, cat. no. 153732), and centrifuged at about 300×g for five minutes in an Omnifuge RT tabletop centrifuge (Haereus Separations, Germany), at 4° C. The cells were resuspended at a density of 3×10^6 cells per mL in FACS buffer, comprised of 2% (v/v) goat serum (Sigma Chemical Co., St Louis, Mo.) in MEM Alpha Medium, supplemented with L-glutamine (Life Technologies, Grand Island, N.Y.). Using a multichannel pipetor, 3×10^5 cells were added to wells of a Falcon 96-well round bottom plate (cat. no. 3077) and then placed on ice. Using a Falcon 96-well flexible assay plate (cat. no. 353911), eleven twofold serial dilutions of each test or control article were prepared in duplicate in FACS buffer, from a starting concentration of 2×10^−8 M. Then, 100 μl of either test or control article was mixed with the cells. Control wells only received FACS buffer. The plate was incubated on ice for one hour, and then centrifuged for five minutes at 300× g, in a refrigerated centrifuge. Reagents were removed from the plate wells by quick inversion over a waste beaker containing 10% bleach. […] The assay plate was then analyzed on a FACScan flow cytometer interfaced with an automated 96-well sampling device (Becton Dickinson, Mountain View, Calif.). […]

T1 sequence (P20138 18-364): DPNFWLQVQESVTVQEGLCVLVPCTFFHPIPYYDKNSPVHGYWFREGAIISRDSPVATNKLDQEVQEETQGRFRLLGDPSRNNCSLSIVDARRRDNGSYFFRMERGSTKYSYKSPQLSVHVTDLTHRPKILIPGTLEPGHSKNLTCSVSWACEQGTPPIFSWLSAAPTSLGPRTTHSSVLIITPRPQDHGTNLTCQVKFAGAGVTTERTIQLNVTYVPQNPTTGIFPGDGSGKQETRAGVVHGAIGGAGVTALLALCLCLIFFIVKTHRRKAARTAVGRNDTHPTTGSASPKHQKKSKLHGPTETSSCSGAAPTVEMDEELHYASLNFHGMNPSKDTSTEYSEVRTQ
T2 sequence (P20138 18-364): as above

Molecule: My9-6: murine anti-CD33 monoclonal antibody, IgG1 kappa, hybridoma ATCC PTA-4786
- effect on survival [1]: modest increase in survival
- effect on HL-60 tumor growth compared to vehicle control ([2]; antibody alone, dose not stated): no effect on HL-60 tumor growth
- effect on tumor cell growth ([2]; antibody alone, even at 50 mg/kg): no effect on tumor cell growth
- effect on tumor growth ([2]; unconjugated antibody 23 mg/kg daily for 5 days): no affect on tumor growth
- competition binding curves against 125I-labeled muMy9-6 ([3]; 3×10^−9 M 125I-muMy9-6, U-937 cells, 4° C., 30 min): very similar competition binding curves
- binding affinity / avidity for CD33 ([3]; CD33-positive U-937 cells): very similar binding avidities; also recorded: high affinity

Molecule: calicheamicin
- toxicity in pre-clinical models [4]: hepatotoxicity

Molecule: Nc1ccn([C@@H]2O[C@H](CO)[C@@H](O)[C@@H]2O)c(=O)n1 [Ara-C]
- toxicity of higher drug doses (large HL-60 tumors): profoundly toxic
- effect on tumor growth (large HL-60 tumors): little effect on tumor growth

Molecule: CC(=O)[C@]1(O)Cc2c(O)c3c(c(O)c2[C@@H](O[C@H]2C[C@H](N)[C@H](O)[C@H](C)O2)C1)C(=O)c1ccccc1C3=O [idarubicin]
- toxicity of higher drug doses (large HL-60 tumors): profoundly toxic
- effect on tumor growth (large HL-60 tumors): little effect on tumor growth

Molecule: COc1cc2cc(c1Cl)N(C)C(=O)C[C@H](OC(=O)[C@H](C)N(C)C(C)=O)[C@]1(C)O[C@H]1[C@H](C)[C@@H]1C[C@@](O)(NC(=O)O1)[C@H](OC)/C=C/C=C(\C)C2 [maytansine, reference compound]
- effect on survival [1]: significant impact on mouse survival
- mice that died shortly after the start of treatment [1]: 2 of 8
- mice that died two days after treatment ([2]; 350 μg/kg daily for 5 days): Three of 6
- delay in tumor growth ([2]; 350 μg/kg daily for 5 days, remaining 3 mice): approximately 10 days

B1: V1.0: most human resurfaced version of My9-6, all ten human surface residues (antibody, V domains shown)
VH: QVQLQQPGAEVVKPGASVKMSCKASGYTFTSYYIHWIKQTPGQGLEWVGVIYPGNDDISYNQKFQGKATLTADKSSTTAYMQLSSLTSEDSAVYYCAREVRLRYFDVWGQGTTVTVSS
VL: EIVLTQSPGSLAVSPGERVTMSCKSSQSVFFSSSQKNYLAWYQQIPGQSPRLLIYWASTRESGVPDRFTGSGSGTDFTLTISSVQPEDLAIYYCHQYLSSRTFGQGTKLEIKR
- binding affinity relative to wild type ([5]; HL-60 membranes and whole cells): near wild type binding affinities
- KD value compared with murine My9-6 ([5]; HL-60 membranes or whole cells, numbers only in FIG. 17): fall within the experimental error of the KD value of murine My9-6
